Measurements published in the supplement of paper PMC10307832.

Legend:
Assay in all cases: relative viability (nuclei count vs DMSO), 5 days (fraction); higher = more cells survive
Irinotecan + OSI-027 = compound: CCc1c2c(nc3ccc(OC(=O)N4CCC(N5CCCCC5)CC4)cc13)-c1cc3c(c(=O)n1C2)COC(=O)[C@]3(O)CC [Irinotecan] + COc1cccc2cc(-c3nc([C@H]4CC[C@H](C(=O)O)CC4)n4ncnc(N)c34)[nH]c12 [OSI-027] (partner 0.5 µM)
How it was run: (§1)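 Relative viability was taken as the ratio of nuclei in treated wells to nuclei in vehicle wells. Lung cancer cell lines in 1536-well plates received compounds by pin tool one day after seeding, either one drug alone or a fixed anchor-drug dose plus five library-drug doses (not always all listed) in √10 steps. Nuclei were counted on 4× images after 5 days of treatment, and values are medians of duplicate plates.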

Irinotecan + Navitoclax = compound: CCc1c2c(nc3ccc(OC(=O)N4CCC(N5CCCCC5)CC4)cc13)-c1cc3c(c(=O)n1C2)COC(=O)[C@]3(O)CC [Irinotecan] + CC1(C)CCC(c2ccc(Cl)cc2)=C(CN2CCN(c3ccc(C(=O)NS(=O)(=O)c4ccc(N[C@H](CCN5CCOCC5)CSc5ccccc5)c(S(=O)(=O)C(F)(F)F)c4)cc3)CC2)C1 [Navitoclax] (partner 0.5 µM)
How it was run: as §1

RU-SKI 43 + Linsitinib = compound: CC[C@@H](C)CNCC(=O)N1CCC2=C([C@@H]1COC3=CC=CC(=C3)C)C=CS2 [RU-SKI 43] + C[C@]1(O)C[C@@H](c2nc(-c3ccc4ccc(-c5ccccc5)nc4c3)c3c(N)nccn32)C1 [Linsitinib] (partner 1 µM)
How it was run: as §1

Irinotecan + Crizotinib = compound: CCc1c2c(nc3ccc(OC(=O)N4CCC(N5CCCCC5)CC4)cc13)-c1cc3c(c(=O)n1C2)COC(=O)[C@]3(O)CC [Irinotecan] + C[C@@H](Oc1cc(-c2cnn(C3CCNCC3)c2)cnc1N)c1c(Cl)ccc(F)c1Cl [Crizotinib] (partner 1 µM)
How it was run: as §1

UMC-11 was tested, and the relative viability (Irinotecan + OSI-027; first compound 0.6325 µM) was 0.461, the relative viability (Irinotecan + OSI-027; first compound 2 µM) was 0.475 and the relative viability (Irinotecan + OSI-027; first compound 6.325 µM) was 0.279. For the same cell line, the relative viability (Irinotecan + OSI-027; first compound 20 µM) was 0.155, the relative viability (Irinotecan + Navitoclax; first compound 0.6325 µM) was 0.235 and the relative viability (Irinotecan + Navitoclax; first compound 2 µM) was 0.208. It also gave a relative viability (Irinotecan + Navitoclax; first compound 6.325 µM) of 0.163, a relative viability (Irinotecan + Navitoclax; first compound 20 µM) of 0.147 and a relative viability (RU-SKI 43 + Linsitinib; first compound 0.1 µM) of 1.11. It also gave a relative viability (RU-SKI 43 + Linsitinib; first compound 0.3162 µM) of 1.21, a relative viability (RU-SKI 43 + Linsitinib; first compound 1 µM) of 1.07 and a relative viability (RU-SKI 43 + Linsitinib; first compound 3.162 µM) of 1.04. For the same cell line, the relative viability (RU-SKI 43 + Linsitinib; first compound 10 µM) was 1.07, the relative viability (Irinotecan + Crizotinib; first compound 0.6325 µM) was 0.296 and the relative viability (Irinotecan + Crizotinib; first compound 2 µM) was 0.374. It also gave a relative viability (Irinotecan + Crizotinib; first compound 6.325 µM) of 0.326 and a relative viability (Irinotecan + Crizotinib; first compound 20 µM) of 0.157.
